# Where two headings read alike, the source gives them in different places.
# Key:
# [1] = system: Enterobacterales expressing class D oxacillinases (OXA-48/48-like); assay: organism not typed; type: cell-based, E. coli, K. pneumoniae
# [2] = system: isogenic strains of E. coli expressing Ambler class A, B, C, and D enzymes; assay: microbe, parasite or virus in culture; type: cell-based, Escherichia coli
# E. coli ESBL4 (CTX-M-15) [3] = assay: Broth microdilution MIC; type: cell-based; details: modal value, 5 independent determinations
# [4] = system: E. cloacae ECL01 (TEM-72, ACT-1, P99AmpC); assay: Broth microdilution MIC; type: cell-based; details: modal value, 5 independent determinations
# [5] = system: K. pneumoniae ATCC BAA-1705 (KPC-2); assay: Broth microdilution MIC; type: cell-based; details: modal value, 5 independent determinations
# [6] = system: K. pneumoniae 752286 (OXA-48); assay: Broth microdilution MIC; type: cell-based; details: modal value, 5 independent determinations
# [7] = system: E. cloacae ECL01 (TEM-72, ACT-1, P99AmpC); assay: 24-h time-kill assay; type: cell-based; details: lowest concentration with ≥3-log10 CFU/ml reduction at 24 h
# Description: (§1) In vitro antibacterial time-kill assay. […] Time-kill assays were performed in 14 ml glass tubes or deep-well storage plates with a bacterial inoculum in CAMHB of 5 × 10^5 CFU/ml. The tubes/plates were incubated at 37°C with shaking at 200 rpm, and aliquots were drawn at six time points (0, 2, 4, 6, 8, and 24 h) to conduct 0.5 log10 dilutions in CAMHB in 96-well plates that were incubated overnight at 37°C and used to ascertain viable bacterial counts. The lowest quantifiable amount by this method is 2 log10 CFU/ml.
# E. coli ESBL4 (CTX-M-15) [8] = assay: 24-h time-kill assay; type: cell-based
# Description: as §1
# [9] = system: K. pneumoniae 752286 (OXA-48); assay: 24-h time-kill assay; type: cell-based; details: lowest concentration with ≥3-log10 CFU/ml reduction at 24 h
# Description: as §1
# [10] = system: K. pneumoniae ATCC BAA-1705 (KPC-2); assay: 24-h time-kill assay; type: cell-based; details: lowest concentration with ≥3-log10 CFU/ml reduction at 24 h
# Description: as §1
# [11] = system: Enterobacterales expressing class C cephalosporinases
smiles,measurement,setting,value
C[C@@H](O)[C@H]1C(=O)N2C(C(=O)O)=C(S[C@H]3CC[S@@+]([O-])C3)S[C@H]12 [Sulopenem],MIC,[1]; K. pneumoniae DOV (OXA-48),2 µg/mL
same,MIC,[1]; K. pneumoniae KIRK (OXA-162),4 µg/mL
same,MIC,[1]; K. pneumoniae SI-C17 (OXA-48),16 µg/mL
same,Fold increase in MIC compared to vector control,[2],2
same,Fold increase in MIC compared to vector control,"[2]; E. coli expressing ACT-17 (class C), inhibitor fixed at 4 μg/ml",8
same,Fold increase in MIC compared to vector control,"[2]; E. coli expressing CMY-2 (class C), inhibitor fixed at 4 μg/ml",8
same,Fold increase in MIC compared to vector control,"[2]; E. coli expressing CMY-42 (class C), inhibitor fixed at 4 μg/ml",16
same,Fold increase in MIC compared to vector control,"[2]; E. coli expressing CTX-M-15 (class A), inhibitor fixed at 4 μg/ml",4
same,Fold increase in MIC compared to vector control,"[2]; E. coli expressing GES-5 (class A), inhibitor fixed at 4 μg/ml",256
same,Fold increase in MIC compared to vector control,"[2]; E. coli expressing KPC-2 (class A), inhibitor fixed at 4 μg/ml","2,048"
same,Fold increase in MIC compared to vector control,"[2]; E. coli expressing KPC-3 (class A), inhibitor fixed at 4 μg/ml","2,048"
same,Fold increase in MIC compared to vector control,"[2]; E. coli expressing KPC-3 D179Y (class A), inhibitor fixed at 4 μg/ml",16
same,Fold increase in MIC compared to vector control,"[2]; E. coli expressing NDM-1 (class B), inhibitor fixed at 4 μg/ml","1,024"
same,Fold increase in MIC compared to vector control,"[2]; E. coli expressing OXA-23 (class D), inhibitor fixed at 4 μg/ml",64
same,Fold increase in MIC compared to vector control,"[2]; E. coli expressing OXA-48 (class D), inhibitor fixed at 4 μg/ml",512
same,Fold increase in MIC compared to vector control,"[2]; E. coli expressing OXA-163 (class D), inhibitor fixed at 4 μg/ml",8
same,Fold increase in MIC compared to vector control,"[2]; E. coli expressing OXA-181 (class D), inhibitor fixed at 4 μg/ml","1,024"
same,Fold increase in MIC compared to vector control,"[2]; E. coli expressing P99/AmpC (class C), inhibitor fixed at 4 μg/ml",16
same,Fold increase in MIC compared to vector control,"[2]; E. coli expressing PER-1 (class A), inhibitor fixed at 4 μg/ml",8
same,Fold increase in MIC compared to vector control,"[2]; E. coli expressing SHV-5 (class A), inhibitor fixed at 4 μg/ml",8
same,Fold increase in MIC compared to vector control,"[2]; E. coli expressing SHV-12 (class A), inhibitor fixed at 4 μg/ml",4
same,Fold increase in MIC compared to vector control,"[2]; E. coli expressing VEB-9 (class A), inhibitor fixed at 4 μg/ml",4
same,MIC,E. coli ESBL4 (CTX-M-15) [3],0.12 µg/mL
same,MIC,[4],1 µg/mL
same,MIC,[5],32 µg/mL
same,MIC,[6],16 µg/mL
same,MBC,[7],1 µg/mL
same,outcome of 24-h time-kill assay,"E. coli ESBL4 (CTX-M-15) [8]; Fig. 3a, CTB 2 μg/ml with BLI at 4 μg/ml, CTB alone 8 μg/ml, amoxicillin 8/clavulanic acid 4 μg/ml, penems 2 μg/ml",bactericidal activity
same,MBC,E. coli ESBL4 (CTX-M-15) [8]; lowest concentration with ≥3-log10 CFU/ml reduction at 24 h,0.12 µg/mL
same,MBC,[9],>32 µg/mL
same,MBC,[10],32 µg/mL
same,MIC90,"[11]; 25 isolates, BLI fixed at 4 μg/ml, AMC 2:1",2 µg/mL
same,MIC,"[11]; C. freundii 134390 (AmpC, TEM-1)",0.06 µg/mL
same,MIC,"[11]; E. aerogenes 110099 (AmpC, SHV-12)",0.06 µg/mL
same,MIC,"[11]; E. aerogenes 111707 (AmpC, TEM-1)",0.12 µg/mL
same,MIC,"[11]; E. aerogenes 111902 (AmpC, TEM-1)",0.25 µg/mL
same,MIC,"[11]; E. coli 128 (AmpC, SHV-12, TEM-1, Toho-2)",0.03 µg/mL
same,MIC,"[11]; E. coli 3102 (AmpC, CTX-M-15, TEM-1)",0.03 µg/mL
same,MIC,"[11]; E. coli CH1 (AmpC, CTX-M-15, SHV-1, SHV-5, TEM-1)",0.06 µg/mL
same,MIC,"[11]; E. coli EC469 (AmpC, SHV-12, TEM-1)",0.03 µg/mL
same,MIC,"[11]; E. coli J53 (AmpC, SHV-5, TEM-1)",0.06 µg/mL
same,MIC,"[11]; E. coli SI-P026TC (CMY-2, TEM-1)",0.25 µg/mL
same,MIC,"[11]; E. coli SI-PO26 (AmpC, CMY-2, TEM-1)",0.12 µg/mL
same,MIC,"[11]; K. pneumoniae 129032 (MOX-2, SHV-12, TEM-1)",0.06 µg/mL
same,MIC,"[11]; K. pneumoniae 178279 (AmpC, SHV-12, TEM-1)",0.06 µg/mL
same,MIC,"[11]; K. pneumoniae 212027 (AmpC, FOX-5, TEM-1)",0.03 µg/mL
same,MIC,"[11]; K. pneumoniae 217917 (CMY-2, TEM-1)",0.06 µg/mL
same,MIC,"[11]; K. pneumoniae 301313 (AmpC, SHV-12, TEM-1)",0.12 µg/mL
same,MIC,"[11]; K. pneumoniae 398845 (CMY-2, SHV-12, TEM-1)",0.06 µg/mL
same,MIC,"[11]; K. pneumoniae SI-F100 (CMY-2, SHV-5, TEM-1)",0.03 µg/mL
same,MIC,"[11]; P. mirabilis SI-F014 (AmpC, TEM-72)",1 µg/mL
same,MIC,"[11]; S. marcescens 132253 (AmpC, CTX-M-3, OXA-1, SHV-12, TEM-1)",2 µg/mL
same,MIC,"[11]; S. marcescens 134434 (AmpC, SHV-12, TEM-1)",8 µg/mL
same,MIC,"[11]; S. marcescens 142397 (AmpC, SHV-7, TEM-1)",2 µg/mL
same,MIC,"[11]; S. marcescens 156212 (AmpC, SHV-12, TEM-1)",1 µg/mL
same,MIC,"[11]; S. marcescens 192478 (AmpC, SHV-12, TEM-1)",0.25 µg/mL
same,MIC,"[11]; S. marcescens 218068 (AmpC, SHV-7, TEM-1)",4 µg/mL
